Measured values taken from PubChem BioAssay AID1963960 (Molecular Pharmacology Branch, DTP, NCI, 2024).
pIC50: −log10 of the molar value.

Test system: MDA-MB-468 spheroids with HUVEC/MSC, viability
Assay: Anticancer human tumor MDA-MB-468 cell line growth inhibition [PI3K];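 further: spheroids exposed to agents for seven days before readout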;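 on viability, T/C: 100% = DMSO vehicle control viability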
Conditions: for pIC50: curve of first compound; for viability, T/C: stronger effect = lower value
Text: Combinatorial screen of targeted agents with the PI3K inhibitors inavolisib, alpelisib, duvelisib, and copanlisib in multi-cell type tumor spheroids
A high-throughput screen of multi-cell type tumor spheroids was designed to identify active combinations of targeted small molecules and PI3K pathway inhibitors. Complex spheroids include a stromal component modeled by human endothelial cells (HUVEC) and fibroblasts modeled by human mesenchymal stem cells (MSCs). The concentration ranges selected for each drug and investigational agent were based upon clinically achievable concentrations if the clinical Cmax of the agent was known.
Compounds. The drugs and investigational agents: inavolisib (NSC800729), alpelisib (NSC765974), duvelisib (NSC772469), copanlisib (NSC816437), ipatasertib (NSC767898), afuresertib (NSC778305), talazoparib (NSC767125), sapanisertib (NSC764658), selumetinib (NSC741078), tovorafenib (DAY101, NSC766906), vemurafenib (NSC761431), ravoxertinib (NSC781343), sotorasib (NSC818433), MRTX1133 (NSC 836407), abemaciclib (NSC 768073), palbociclib (NSC758247), venetoclax (NSC 766270), SY5609 (NSC837396), enzalutamide (NSC755605), and darolutamide (NSC825331), were obtained from the National Cancer Institute (NCI) Developmental Therapeutics Program Chemical Repository. The FDA-approved anticancer drug set is available from the NCI Developmental Therapeutics Program. […] The stock solutions were prepared in dimethyl sulfoxide (DMSO, Sigma-Aldrich, St. Louis, MO, cat. D2650) at 800-fold the tested concentration and stored at -70 degrees C prior to their use. All drugs and investigational agents were tested over a range starting from a high concentration at or near the clinical Cmax and decreasing in half-log increments. If the clinical Cmax for an agent had not been determined, the highest concentration tested was 10 microM.
Cell Culture. All cells were maintained in an incubator at 37 degrees C and 5% CO2 with 95% humidity. The PDC lines were cultured according to standard operating procedures established by the NCI PDMR (https://pdmr.cancer.gov/sops/default.htm). All PDCs were thawed and cultured in Matrigel-coated flasks prepared with a working solution of 1X Ham's F-12 nutrient mix, without supplementation (Invitrogen, Waltham, MA, cat. 11765054), 100 U/mL penicillin-streptomycin (Invitrogen, cat. 15140122), and 2.5% Matrigel (Corning Inc., Corning, NY, cat. 354248) for the first three passages. The 354836-022-R-J1-PDC, 475296-252-R-J1-PDC, and 997726-040-R-J2-PDC lines were cultured in 6A media, which includes advanced DMEM/F-12 (Thermo Fisher Scientific, cat. 12634028), 10 mM HEPES (Thermo Fisher Scientific, cat. 15630080), 1X GlutaMAX supplement (Thermo Fisher Scientific, cat. 35050061), 0.1 mg/mL primocin (InvivoGen, San Diego, CA, cat. ant-pm-2), 10% defined fetal bovine serum, heat inactivated (HyClone Laboratories Inc., Logan, UT, cat. SH30070.03HI), 50% L-WRN conditioned media (ATCC, cat. CRL-3276), 1.25 mM N-Acetyl-L-cysteine (Sigma-Aldrich, cat. A9165), 10 mM nicotinamide (Sigma-Aldrich, cat. N0636), 1X B-27 supplement (Thermo Fisher Scientific, cat. 17504044), 1X N-2 supplement (Thermo Fisher Scientific, cat. 17502048), and 10 microM Y-27632 dihydrochloride (Tocris Bioscience, Bristol, United Kingdom, cat. 1254). The 624824-186-R-J2-PDC line was cultured in 6C/Colon 1B media, which includes all 6A media components plus 50 ng/mL human EGF recombinant protein (Thermo Fisher Scientific, cat. PHG0311). […]

[1] = second compound 0.00316 µM, first compound 0.0316 µM
[2] = second compound 0.00316 µM, first compound 0.1 µM
[3] = second compound 0.00316 µM, first compound 0.316 µM
[4] = second compound 0.00316 µM, first compound 1 µM
[5] = second compound 0.00316 µM, first compound 3.16 µM
[6] = second compound 0.00316 µM, first compound 10 µM
[7] = second compound 0.01 µM, first compound 0.0316 µM
[8] = second compound 0.01 µM, first compound 0.1 µM
[9] = second compound 0.01 µM, first compound 0.316 µM
[10] = second compound 0.01 µM, first compound 1 µM
[11] = second compound 0.01 µM, first compound 3.16 µM
[12] = second compound 0.01 µM, first compound 10 µM
[13] = second compound 0.0316 µM, first compound 0.0316 µM
[14] = second compound 0.0316 µM, first compound 0.1 µM
[15] = second compound 0.0316 µM, first compound 0.316 µM
[16] = second compound 0.0316 µM, first compound 1 µM
[17] = second compound 0.0316 µM, first compound 3.16 µM
[18] = second compound 0.0316 µM, first compound 10 µM
[19] = second compound 0.1 µM, first compound 0.0316 µM
[20] = second compound 0.1 µM, first compound 0.1 µM
[21] = second compound 0.1 µM, first compound 0.316 µM
[22] = second compound 0.1 µM, first compound 1 µM
[23] = second compound 0.1 µM, first compound 3.16 µM
[24] = second compound 0.1 µM, first compound 10 µM
[25] = second compound 0.316 µM, first compound 0.0316 µM
[26] = second compound 0.316 µM, first compound 0.1 µM
[27] = second compound 0.316 µM, first compound 0.316 µM
[28] = second compound 0.316 µM, first compound 1 µM
[29] = second compound 0.316 µM, first compound 3.16 µM
[30] = second compound 0.316 µM, first compound 10 µM
[31] = second compound 1 µM, first compound 0.0316 µM
[32] = second compound 1 µM, first compound 0.1 µM
[33] = second compound 1 µM, first compound 0.316 µM
[34] = second compound 1 µM, first compound 1 µM
[35] = second compound 1 µM, first compound 3.16 µM
[36] = second compound 1 µM, first compound 10 µM

CC(C)NCC(C(=O)N1CCN(c2ncnc3c2C(C)CC3O)CC1)c1ccc(Cl)cc1 (stereo unspecified) + CC(Nc1ccc2c(c1)OCCn1cc(N3C(=O)OCC3C(F)F)nc1-2)C(N)=O
pIC50 (second compound 0.00316 µM): 5.89
pIC50 (second compound 0.01 µM): 6.12
pIC50 (second compound 0.0316 µM): 6.13
pIC50 (second compound 0.1 µM): 6.24
pIC50 (second compound 0.316 µM): 6.17
pIC50 (second compound 1 µM): 6.51
viability, T/C [1]: 90.2%
viability, T/C [2]: 91.3%
viability, T/C [3]: 72.5%
viability, T/C [4]: 60.1%
viability, T/C [5]: 27.5%
viability, T/C [6]: 25.5%
viability, T/C [7]: 113%
viability, T/C [8]: 88%
viability, T/C [9]: 67.7%
viability, T/C [10]: 45.8%
viability, T/C [11]: 27.8%
viability, T/C [12]: 23.7%
viability, T/C [13]: 88.1%
viability, T/C [14]: 85.5%
viability, T/C [15]: 65.6%
viability, T/C [16]: 45.1%
viability, T/C [17]: 29.5%
viability, T/C [18]: 24.4%
viability, T/C [19]: 104%
viability, T/C [20]: 83.6%
viability, T/C [21]: 57.2%
viability, T/C [22]: 45.1%
viability, T/C [23]: 24.3%
viability, T/C [24]: 21.4%
viability, T/C [25]: 89.8%
viability, T/C [26]: 81.3%
viability, T/C [27]: 65.7%
viability, T/C [28]: 42.5%
viability, T/C [29]: 26.4%
viability, T/C [30]: 22%
viability, T/C [31]: 82.5%
viability, T/C [32]: 65.3%
viability, T/C [33]: 50.1%
viability, T/C [34]: 37%
viability, T/C [35]: 26.2%
viability, T/C [36]: 21.2%

CCN1CCN(Cc2ccc(Nc3ncc(F)c(-c4cc(F)c5nc(C)n(C(C)C)c5c4)n3)nc2)CC1 + CC(Nc1ccc2c(c1)OCCn1cc(N3C(=O)OCC3C(F)F)nc1-2)C(N)=O
pIC50 (second compound 0.00316 µM): < 6.00
pIC50 (second compound 0.01 µM): < 6.00
pIC50 (second compound 0.0316 µM): < 6.00
pIC50 (second compound 0.1 µM): < 6.00
pIC50 (second compound 0.316 µM): 6.07
pIC50 (second compound 1 µM): < 6.00
viability, T/C (second compound 0.00316 µM, first compound 0.00316 µM): 94%
viability, T/C (second compound 0.00316 µM, first compound 0.01 µM): 98.2%
viability, T/C [1]: 91.5%
viability, T/C [2]: 103%
viability, T/C [3]: 98.9%
viability, T/C [4]: 70.1%
viability, T/C (second compound 0.01 µM, first compound 0.00316 µM): 101%
viability, T/C (second compound 0.01 µM, first compound 0.01 µM): 117%
viability, T/C [7]: 83.4%
viability, T/C [8]: 100%
viability, T/C [9]: 94.5%
viability, T/C [10]: 70.5%
viability, T/C (second compound 0.0316 µM, first compound 0.00316 µM): 103%
viability, T/C (second compound 0.0316 µM, first compound 0.01 µM): 108%
viability, T/C [13]: 99.2%
viability, T/C [14]: 85.5%
viability, T/C [15]: 104%
viability, T/C [16]: 59.2%
viability, T/C (second compound 0.1 µM, first compound 0.00316 µM): 106%
viability, T/C (second compound 0.1 µM, first compound 0.01 µM): 95.5%
viability, T/C [19]: 99.2%
viability, T/C [20]: 105%
viability, T/C [21]: 89.4%
viability, T/C [22]: 54.3%
viability, T/C (second compound 0.316 µM, first compound 0.00316 µM): 106%
viability, T/C (second compound 0.316 µM, first compound 0.01 µM): 92.7%
viability, T/C [25]: 79.9%
viability, T/C [26]: 93.3%
viability, T/C [27]: 84.6%
viability, T/C [28]: 44.2%
viability, T/C (second compound 1 µM, first compound 0.00316 µM): 108%
viability, T/C (second compound 1 µM, first compound 0.01 µM): 81.7%
viability, T/C [31]: 88.6%
viability, T/C [32]: 88.3%
viability, T/C [33]: 88.3%
viability, T/C [34]: 51.8%

Cn1ncc(Cl)c1-c1cc(C(=O)NC(CN)Cc2cccc(F)c2)sc1Cl (stereo unspecified) + CC(Nc1ccc2c(c1)OCCn1cc(N3C(=O)OCC3C(F)F)nc1-2)C(N)=O
pIC50 (second compound 0.00316 µM): 6.51
pIC50 (second compound 0.01 µM): 6.44
pIC50 (second compound 0.0316 µM): 6.55
pIC50 (second compound 0.1 µM): 6.64
pIC50 (second compound 0.316 µM): 6.80
pIC50 (second compound 1 µM): 6.88
viability, T/C [1]: 89.7%
viability, T/C [2]: 72.2%
viability, T/C [3]: 42.9%
viability, T/C [4]: 35.6%
viability, T/C [5]: 22%
viability, T/C [6]: 7.53%
viability, T/C [7]: 83.7%
viability, T/C [8]: 74.4%
viability, T/C [9]: 44.8%
viability, T/C [10]: 36.4%
viability, T/C [11]: 25.6%
viability, T/C [12]: 5.85%
viability, T/C [13]: 91.2%
viability, T/C [14]: 71.8%
viability, T/C [15]: 39.9%
viability, T/C [16]: 33.7%
viability, T/C [17]: 22.1%
viability, T/C [18]: 3.85%
viability, T/C [19]: 78.7%
viability, T/C [20]: 63.6%
viability, T/C [21]: 39.8%
viability, T/C [22]: 33.6%
viability, T/C [23]: 20.8%
viability, T/C [24]: 4.34%
viability, T/C [25]: 75.8%
viability, T/C [26]: 59.6%
viability, T/C [27]: 33.8%
viability, T/C [28]: 27.5%
viability, T/C [29]: 19.2%
viability, T/C [30]: 4.28%
viability, T/C [31]: 76.2%
viability, T/C [32]: 53%
viability, T/C [33]: 37.2%
viability, T/C [34]: 21.8%
viability, T/C [35]: 18.9%
viability, T/C [36]: 3.04%
